Test results from article PMC11855866 (International Journal of Molecular Sciences, 2025).
≈ marks a conversion by molar mass, not a printed value.

Tests used:
[1] = system: 4T1 tumors; test: 4T1 breast cancer in BALB/c mice; format: in vivo; settings: GLIM alone 4 mg/kg i.p.
Method: Six- to eight-week-old female BALB/c mice (Charles River Breeding Laboratories, Wilmington, MA, USA) were bred at the Maria Sklodowska-Curie National Research Institute of Oncology, Gliwice Branch (Gliwice, Poland), under a HEPA-filtered Allentown's IVC System (Allentown Caging Equipment Co., Allentown, NJ, USA). All efforts to minimize animal suffering were made by qualified personnel. This study was carried out in strict accordance with the recommendations in the Guide for the Care and Use of Laboratory Animals of the National Institutes of Health. The protocols were approved by the Committee on the Ethics of Animal Experiments of the Local Ethics Commission (Medical University of […], Poland; Permit No. 22/2024). BALB/c mice were injected subcutaneously in the lower flank with 2 × 10^5 4T1 cells suspended in 100 μL PBS. […] Each treatment was administered a total of five times.

[2] = system: CT26 colon cancer model; design: method as in PMID 36033393; settings: GLIM 5 mg/kg every 2 days, i.p.; cited from earlier work
[3] = system: HepG2 cells; test: MTT cytotoxicity / synergy assay, 72 h, HepG2; settings: Homo sapiens, HepG2, 72 h, read-out: IC50 Value in Specific Cell Line, HepG2, MTT, 72 h; n.d. = IC50 not achieved within concentrations tested
Method: (§1) The synergistic effects of drug combinations were studied in various cancer cell lines, including MCF-7 (human breast cancer), A549 (human lung cancer), U-87 MG (human malignant glioma), HepG2 (human liver cancer), and HUH7 (human liver cancer). HMEC-1, an immortalized human microvascular endothelial cell line, was used as a model for normal cells. All cell lines were purchased from ATCC (Rockville, MD, USA).
(§2) The cancer cell lines were cultured in Dulbecco’s Modified Eagle’s Medium (DMEM; Sigma-Aldrich) supplemented with 10% FBS and 1% penicillin/streptomycin mixture (10,000 U/mL penicillin and 10 mg/mL streptomycin; Sigma-Aldrich) at 37 °C in a humidified atmosphere with 5% CO2.
(§3) For the MTT assay, exponentially growing cells were seeded into 96-well plates at a density of 5 × 10³ cells per well. After 24 h of incubation, the medium was replaced with 100 µL of fresh medium containing the tested compounds. After 72 h of treatment, cell viability was assessed using the MTT assay as described earlier. […] IC50 values were calculated using GraphPad Prism 9 software (GraphPad Software).

[4] = system: U-87MG cells; test: MTT cytotoxicity / synergy assay, 72 h, U-87MG; format: cell-based; settings: Homo sapiens, n.d. = IC50 not achieved within concentrations tested, read-out: IC50 Value in Specific Cell Line, U-87MG
Method: as §1, §2, §3

[5] = design: method as in Figure S2 [39–71]; settings: ref Figure S2 [39–71]; cited from earlier work
[6] = DLS particle size measurements; format: physicochemical
Method: Dynamic light scattering (DLS) measurements were performed using a Zetasizer Nano ZS instrument (Malvern Instruments, Malvern, UK). Samples of 2 mL were placed in disposable PMMA cuvettes (cat. #634-0677; VWR, Gdańsk, Poland) and measured at 37 °C. To ensure accuracy, each sample was measured at least three times. The data were processed using DTS v6.2 software (Malvern Instruments).

[7] = MTT cytotoxicity, range over the cell panel; format: cell-based; settings: human; range over the tested cell lines; read-out: cytotoxicity (IC50 range over cell lines), our study
Method: HMEC-1, an immortalized human microvascular endothelial cell line, was used as a model for normal cells.
as §2, §3

[8] = system: A549 cells; test: MTT cytotoxicity / synergy assay, 72 h, A549; settings: Homo sapiens, A549, 72 h, read-out: IC50 Value in Specific Cell Line, A549, MTT, 72 h; n.d. = IC50 not achieved within concentrations tested
Method: as §1, §2, §3

[9] = system: A549, HepG2, MCF-7, and U-87MG; test: Doxorubicin accumulation assay, sensitive cell lines; format: cell-based, human
Method: Cells were seeded at a density of 2 × 10^4 cells per well in black 96-well plates as described in Section 3.6.

CCC1=C(C)CN(C(=O)NCCc2ccc(S(=O)(=O)NC(=O)N[C@H]3CC[C@H](C)CC3)cc2)C1=O [GLIM, Glimepiride]
body weight compared to controls [1]: no significant change in body weight
tumor size compared to untreated controls [1]: no reduction in tumor size
increase in CD8+ T cell infiltration [2]: about 100%
reduction of tumor mass [2]: 45%
IC50 [3]: 177 µM
IC50 [4]: 186 µM
solubility [5]: 12.2 µM (≈ 5.99 µg/mL)
d¯I of drug aggregates ([6]; PBS pH 7.4, 37 °C, […] BSA, GLIM beyond 200 µM): approx. 353 nm
diameter of aggregates ([6]; absence of BSA, buffers and culture media): over 300 nm
IC50 at 72 h [7]: 135 to 473 µM
IC50 [8]: 353 µM
increase of DOXO levels [9]: up to 2.3 times
